From US20220264878A1, “HERBICIDAL COMPOSITION CONTAINING R-TYPE PYRIDYLOXY CARBOXYLIC ACID DERIVATIVE AND USE THEREOF” (Qingdao Kingagroot Chemical Compound Co., Ltd., priority 2019, published 2022)

How the values were obtained:
Experiment in all cases: Post-emergence foliage spray, pot culture, fresh weight inhibition (Tables 1-48, 51-98, 101-148; 24 days)
Assay type in all cases: in vivo
[1] = system: Stellaria media; settings: Table 105
Procedure, shortened: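 Pot-grown weeds were thinned to 15 per pot (45 per treatment) and sprayed on foliage at the 5–6-leaf stage for grasses or the 6–7-leaf stage for broadleaves. Agents were dissolved in acetone with 0.1% Tween-80 and applied at 450 kg/ha spray volume and 0.3 MPa. Plants were then kept in a greenhouse. Above-ground fresh weight of survivors, with dead plants counted as zero, gave inhibition versus a solvent/emulsifier blank.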

[2] = system: Xanthium strumarium
Procedure, shortened: (§1)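 Greenhouse pot-grown weeds (15 per pot, 3 pots, 4 replicates) at the 5–6-leaf (grasses) or 6–7-leaf (broadleaf) stage were sprayed once on foliage at 450 kg/ha spray volume, 0.3 MPa. Acetone solutions were diluted in 0.1% Tween-80. Aboveground fresh weight versus blank control was recorded after 24 days.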

[3] = system: Ammannia arenaria; settings: Table 103
Procedure, shortened: as §1

[4] = system: Cirsium setosum; settings: Table 111
Procedure, shortened: as §1

[5] = system: Sonchus oleraceus L.
Procedure, shortened: as §1

[6] = system: Chloris virgata
Procedure, shortened: as §1

[7] = system: Setaria faberi
Procedure, shortened: as §1

[8] = system: Sinapis arvensis
Procedure, shortened: as §1

[9] = system: Acalypha australis
Procedure, shortened: as §1

[10] = system: Beckmannia syzigachne
Procedure, shortened: as §1

[11] = system: Solanum nigrum
Procedure, shortened: as §1

[12] = system: Ipomoea purpurea; settings: Table 98
Procedure, shortened: as §1

[13] = system: Conyza Canadensis
Procedure, shortened: as §1

SMILES: C[C@@H](Oc1nc(F)c(Cl)c(N)c1Cl)C(=O)[O-].[Na+] [Compound A3, A1 sodium salt]
- Control effect (%) of A applied alone in corresponding dose ([1]; 7.5 g a.i./ha): 34.1%
- Control effect (%) of A applied alone in corresponding dose ([1]; 15 g a.i./ha): 67.9%
- Control effect (%) of A applied alone in corresponding dose ([2]; A 7.5 g a.i./ha): 40.8%
- Control effect (%) of A applied alone in corresponding dose ([2]; A 15 g a.i./ha): 77.2%
- Control effect (%) of A applied alone in corresponding dose ([3]; 75 g a.i./ha): 30.4%
- Control effect (%) of A applied alone in corresponding dose ([3]; 150 g a.i./ha): 66.2%
- Control effect (%) of A applied alone in corresponding dose ([4]; 30 g a.i./ha): 31.5%
- Control effect (%) of A applied alone in corresponding dose ([4]; 60 g a.i./ha): 64.3%
- Control effect (%) of A applied alone in corresponding dose ([5]; A 75 g a.i./ha): 33.8%
- Control effect (%) of A applied alone in corresponding dose ([5]; A 150 g a.i./ha): 55.5%
- Control effect (%) of A applied alone in corresponding dose ([6]; A 75 g a.i./ha): 22.0%
- Control effect (%) of A applied alone in corresponding dose ([6]; A 150 g a.i./ha): 48.3%
- Control effect (%) of A applied alone in corresponding dose ([7]; A 30 g a.i./ha): 32.5%
- Control effect (%) of A applied alone in corresponding dose ([7]; A 60 g a.i./ha): 55.4%
- Control effect (%) of A applied alone in corresponding dose ([8]; A 15 g a.i./ha): 33.2%
- Control effect (%) of A applied alone in corresponding dose ([8]; A 30 g a.i./ha): 72.7%
- Control effect (%) of A applied alone in corresponding dose ([9]; A 75 g a.i./ha): 20.7%
- Control effect (%) of A applied alone in corresponding dose ([9]; A 150 g a.i./ha): 51.6%
- Control effect (%) of A applied alone in corresponding dose ([10]; A 75 g a.i./ha): 23.0%
- Control effect (%) of A applied alone in corresponding dose ([10]; A 150 g a.i./ha): 42.8%
- Control effect (%) of A applied alone in corresponding dose ([11]; A 75 g a.i./ha): 16.9%
- Control effect (%) of A applied alone in corresponding dose ([11]; A 150 g a.i./ha): 37.5%

SMILES: CC(C)N(C)S(=O)(=O)NC(=O)c1cc(-n2c(=O)cc(C(F)(F)F)n(C)c2=O)c(F)cc1Cl [saflufenacil]
- Control effect (%) of B applied alone in corresponding dose ([5]; B 3.75 g a.i./ha): 5.4%
- Control effect (%) of B applied alone in corresponding dose ([5]; B 7.5 g a.i./ha): 13.9%
- Control effect (%) of B applied alone in corresponding dose ([5]; B 15 g a.i./ha): 40.9%
- Control effect (%) of B applied alone in corresponding dose ([5]; B 30 g a.i./ha): 76.6%
- Control effect (%) of B applied alone in corresponding dose ([12]; 3.75 g a.i./ha): 7.9%
- Control effect (%) of B applied alone in corresponding dose ([12]; 7.5 g a.i./ha): 16.0%
- Control effect (%) of B applied alone in corresponding dose ([12]; 15 g a.i./ha): 41.3%
- Control effect (%) of B applied alone in corresponding dose ([12]; 30 g a.i./ha): 75.9%
- Control effect (%) of B applied alone in corresponding dose ([13]; saflufenacil 3.75 g a.i./ha): 3.0%
- Control effect (%) of B applied alone in corresponding dose ([13]; saflufenacil 7.5 g a.i./ha): 11.9%
- Control effect (%) of B applied alone in corresponding dose ([13]; saflufenacil 15 g a.i./ha): 39.2%
- Control effect (%) of B applied alone in corresponding dose ([13]; saflufenacil 30 g a.i./ha): 76.5%
